# Experimental data: ChEMBL document CHEMBL3352750, “Novel indole based NNRTIs with improved potency against wild type and resistant HIV” (Bioorg Med Chem Lett, 2014)
# The source made the active and inactive calls. No cut-off for these calls is given here.
# How the values were obtained:
# [1] = system: Human immunodeficiency virus 1; assay: Antiviral activity against HIV1 infected in HEK293T cells by p24 ELISA based phenotypic assay; assay type: functional, organism-based; conditions: Human immunodeficiency virus 1, HEK-293T
# [2] = system: Human immunodeficiency virus 1; assay: Antiviral activity against HIV1; assay type: functional, organism-based
# [3] = Cytotoxicity against HEK293T cells; assay type: cell-based, HEK-293T; conditions: human
# [4] = system: Human immunodeficiency virus 1; assay: Antiviral activity against HIV1 containing reverse transcriptase E138Q mutant infected in HEK293T cells by p24 ELISA based phenotypic assay; assay type: functional, organism-based; conditions: HEK-293T
# [5] = system: Human immunodeficiency virus 1; assay: Antiviral activity against HIV1 containing reverse transcriptase V106M mutant infected in HEK293T cells by p24 ELISA based phenotypic assay; assay type: functional, organism-based; conditions: HEK-293T
# [6] = system: Human immunodeficiency virus 1; assay: Antiviral activity against HIV1 containing reverse transcriptase M230I mutant infected in HEK293T cells by p24 ELISA based phenotypic assay; assay type: functional, organism-based; conditions: HEK-293T
# [7] = system: Human immunodeficiency virus 1; assay: Antiviral activity against HIV1 containing reverse transcriptase G190A mutant infected in HEK293T cells by p24 ELISA based phenotypic assay; assay type: functional, organism-based; conditions: HEK-293T
# [8] = system: Human immunodeficiency virus 1; assay: Antiviral activity against HIV1 containing reverse transcriptase Y181I mutant infected in HEK293T cells by p24 ELISA based phenotypic assay; assay type: functional, organism-based; conditions: HEK-293T
# [9] = system: Human immunodeficiency virus 1; assay: Antiviral activity against HIV1 containing reverse transcriptase K103N mutant infected in HEK293T cells by p24 ELISA based phenotypic assay; assay type: functional, organism-based; conditions: HEK-293T
# [10] = system: Human immunodeficiency virus 1; assay: Antiviral activity against HIV1 containing reverse transcriptase Y181C mutant infected in HEK293T cells by p24 ELISA based phenotypic assay; assay type: functional, organism-based; conditions: HEK-293T
# [11] = system: Human immunodeficiency virus 1; assay: Antiviral activity against HIV1 containing reverse transcriptase K101P mutant infected in HEK293T cells by p24 ELISA based phenotypic assay; assay type: functional, organism-based; conditions: HEK-293T
SMILES,IC50 [1],CC50 [3],also measured
CCOC(=O)c1[nH]c2ccc(Cl)cc2c1C1(c2cccs2)CC1,,,IC50 [2]: 0.065 µM
Cc1ccnc2c1NC(=O)c1cccnc1N2C1CC1 [NEVIRAPINE],0.12 µM,,IC50 [2]: 0.1 µM
CCOC(=O)c1[nH]c2ccc(Cl)cc2c1C(O)c1ccccc1 (centres undefined),1.15 µM,22.7 µM,
CCOC(=O)c1[nH]c2ccc(Cl)cc2c1C(OC)c1cc(C)cc(C)c1 (centres undefined),0.03 µM,36.5 µM,inhibition [4]: Active; inhibition [5]: Active; inhibition [6]: Active; inhibition [7]: Active; inhibition [8]: Active; inhibition [9]: Active; inhibition [10]: inactive; inhibition [11]: Active
CCOC(=O)c1[nH]c2ccc(Cl)cc2c1C(OC)c1ccccc1 (centres undefined),0.02 µM,25.3 µM,inhibition [5]: inactive; inhibition [7]: Active; inhibition [9]: inactive; inhibition [10]: inactive
COC(c1cc(C)cc(C)c1)c1c[nH]c2ccc(Cl)cc12 (centres undefined),0.3 µM,67.7 µM,
NNC(=O)c1[nH]c2ccc(Cl)cc2c1C1(c2ccccc2)CC1,4.4 µM,,

# Second part, led by results:
IC50 [1],SMILES,CC50 [3],also measured
0.712 µM,O=C(OCCO)c1[nH]c2ccc(Cl)cc2c1C1(c2ccccc2)CC1,,
2.43 µM,COC(c1ccccc1)c1c[nH]c2ccc(Cl)cc12 (centres undefined),67 µM,
0.209 µM,O=C(NCCO)c1[nH]c2ccc(Cl)cc2c1C1(c2ccccc2)CC1,,
4.8 µM,CCOC(=O)c1[nH]c2ccc(Cl)cc2c1C1(c2ccccc2)CC1,,IC50 [2]: 0.085 µM
0.03 µM,CCOC(=O)c1[nH]c2ccc(Cl)cc2c1C(OCC)c1ccccc1 (centres undefined),22.8 µM,
1.2 µM,COC(c1ccccc1)c1c(S(=O)(=O)C(F)(F)F)[nH]c2ccc(Cl)cc12 (centres undefined),24.2 µM,
